Measured values taken from patent US6355799B1, “Substituted benzene compounds, process for their preparation, and herbicidal and defoliant compositions containing them” (ISK Americas Incorporated, priority 1997, dated 2002).

What was measured:
Assay type in all cases: in vivo
[1] = tested on: redroot pigweed (Amaranthus retroflexus, AMARE); assay: Pre-emerge test, greenhouse herbicide activity screening; conditions: phytotoxicity rating 0-100, 14 days after application
Outline: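 Plants grown in 10 cm pots of sandy loam mix received acetone-dissolved compounds through a moving flat-fan nozzle. Doses ranged from 15 to 1000 g ai/ha. Pre-emerge pots were seeded one day earlier, post-emerge pots 8–21 days earlier. Fourteen days on, each pot was graded 0–100 for damage.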

[2] = tested on: barnyardgrass (Echinochloa crus-galli, ECHCG); assay: as above; conditions: phytotoxicity rating 0-100, 14 days after application
Outline: (§1)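 Visual ratings on a 0-100 scale (0 no damage, 100 all plants dead) were taken at 14 days after treatment. Rates of 15-1000 g ai/ha in acetone, 187 l/ha, were sprayed onto soil one day after planting (pre-emerge) or onto 2-3 leaf plants with 0.25% v/v surfactant (post-emerge).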

[3] = tested on: green foxtail (Setaria viridis, SETVI); assay: as above; conditions: phytotoxicity rating 0-100, 14 days after application
Outline: as §1

[4] = tested on: ivyleaf morningglory (Ipomoea hederacea, IPOHE); assay: as above; conditions: phytotoxicity rating 0-100, 14 days after application
Outline: as §1

[5] = tested on: johnsongrass (Sorghum halepense, SORHA); assay: as above; conditions: phytotoxicity rating 0-100, 14 days after application
Outline: as §1

[6] = tested on: lambsquarters (Chenopodium album, CHEAL); assay: as above; conditions: phytotoxicity rating 0-100, 14 days after application
Outline: as §1

[7] = tested on: large crabgrass (Digitaria sanguinalis, DIGSA); assay: as above; conditions: phytotoxicity rating 0-100, 14 days after application
Outline: as §1

[8] = tested on: sicklepod (Cassia obtusifolia, CASOB); assay: as above; conditions: phytotoxicity rating 0-100, 14 days after application
Outline: as §1

[9] = tested on: velvetleaf (Abutilon theophrasti, ABUTH); assay: as above; conditions: phytotoxicity rating 0-100, 14 days after application
Outline: as §1

[10] = tested on: field corn (Zea mays L., var. Dekalb 535, CORN); assay: Pre-emerge test, crop safety; conditions: crop damage rating 0-100, 14 days after application
Outline: (§2)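 Compounds in acetone were track-sprayed at 187 l/ha, 15–1000 g ai/ha, onto sandy loam pots. Pre-emerge seeds were sown one day before spraying, with surface watering afterwards. Post-emerge plants were at the 2–3 leaf stage and sprayed with 0.25% v/v non-ionic surfactant. Injury was rated 0–100 at 14 days.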

[11] = tested on: upland rice (Oryza sp., var. Tebonnet, RICE); assay: Pre-emerge test, crop safety; conditions: crop damage rating 0-100, 14 days after application
Outline: as §2

[12] = tested on: barnyardgrass (Echinochloa crus-galli, ECHCG); assay: Post-emerge test, greenhouse herbicide activity screening; conditions: post-emerge, 14 days after application, rating scale 0-100
Outline: (§3)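 Each test used a mechanized track sprayer delivering 187 l/ha of acetone solution at 15–1000 g ai/ha. Post-emerge foliage at 2–3 leaves was treated with added 0.25% v/v non-ionic surfactant and bottom-watered only. Injury was assessed on day 14, where 100 means total kill.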

[13] = tested on: green foxtail (Setaria viridis, SETVI); assay: as above; conditions: post-emerge, 14 days after application, rating scale 0-100
Outline: as §3

[14] = tested on: ivyleaf morningglory (Ipomoea hederacea, IPOHE); assay: as above; conditions: post-emerge, 14 days after application, rating scale 0-100
Outline: as §3

[15] = tested on: johnsongrass (Sorghum halepense, SORHA); assay: as above; conditions: post-emerge, 14 days after application, rating scale 0-100
Outline: as §3

[16] = tested on: lambsquarters (Chenopodium album, CHEAL); assay: as above; conditions: post-emerge, 14 days after application, rating scale 0-100
Outline: as §3

[17] = tested on: large crabgrass (Digitaria sanguinalis, DIGSA); assay: as above; conditions: post-emerge, 14 days after application, rating scale 0-100
Outline: as §3

[18] = tested on: redroot pigweed (Amaranthus retroflexus, AMARE); assay: as above; conditions: post-emerge, 14 days after application
Outline: as §3

[19] = tested on: sicklepod (Cassia obtusifolia, CASOB); assay: as above; conditions: post-emerge, 14 days after application, rating scale 0-100
Outline: as §3

[20] = tested on: velvetleaf (Abutilon theophrasti, ABUTH); assay: as above; conditions: post-emerge, 14 days after application, rating scale 0-100
Outline: as §3

[21] = tested on: field corn (Zea mays L., var. Dekalb 535, CORN); assay: Post-emerge test, crop safety; conditions: post-emerge, 14 days after application, rating scale 0-100
Outline: as §1

[22] = tested on: upland rice (Oryza sp., var. Tebonnet, RICE); assay: Post-emerge test, crop safety; conditions: post-emerge, 14 days after application, rating scale 0-100
Outline: as §1

COc1c(Cl)cc(F)c(-n2c(=O)cc(C(F)(F)F)n(C)c2=O)c1NC(=O)OCc1ccc(F)c(F)c1 [4-30]
Pre-emerge Herbicidal Activity AMARE ([1]; 63 g ai/ha): 100
Pre-emerge Herbicidal Activity AMARE ([1]; 250 g ai/ha): 100
Pre-emerge Herbicidal Activity ECHCG ([2]; 63 g ai/ha): 60
Pre-emerge Herbicidal Activity ECHCG ([2]; 250 g ai/ha): 90
Pre-emerge Herbicidal Activity SETVI ([3]; 63 g ai/ha): 100
Pre-emerge Herbicidal Activity SETVI ([3]; 250 g ai/ha): 100
Pre-emerge Herbicidal Activity IPOHE ([4]; 63 g ai/ha): 60
Pre-emerge Herbicidal Activity IPOHE ([4]; 250 g ai/ha): 100
Pre-emerge Herbicidal Activity SORHA ([5]; 63 g ai/ha): 30
Pre-emerge Herbicidal Activity SORHA ([5]; 250 g ai/ha): 80
Pre-emerge Herbicidal Activity CHEAL ([6]; 63 g ai/ha): 100
Pre-emerge Herbicidal Activity CHEAL ([6]; 250 g ai/ha): 100
Pre-emerge Herbicidal Activity DIGSA ([7]; 63 g ai/ha): 90
Pre-emerge Herbicidal Activity DIGSA ([7]; 250 g ai/ha): 100
Pre-emerge Herbicidal Activity CASOB ([8]; 63 g ai/ha): 90
Pre-emerge Herbicidal Activity CASOB ([8]; 250 g ai/ha): 95
Pre-emerge Herbicidal Activity ABUTH ([9]; 63 g ai/ha): 100
Pre-emerge Herbicidal Activity ABUTH ([9]; 250 g ai/ha): 100
Pre-emerge Herbicidal Activity CORN ([10]; 63 g ai/ha): 30
Pre-emerge Herbicidal Activity CORN ([10]; 250 g ai/ha): 70
Pre-emerge Herbicidal Activity RICE ([11]; 63 g ai/ha): 90
Pre-emerge Herbicidal Activity RICE ([11]; 250 g ai/ha): 90
phytotoxicity rating ECHCG ([12]; 63 g ai/ha): 50
phytotoxicity rating ECHCG ([12]; 250 g ai/ha): 90
phytotoxicity rating SETVI ([13]; 63 g ai/ha): 80
phytotoxicity rating SETVI ([13]; 250 g ai/ha): 100
phytotoxicity rating IPOHE ([14]; 63 g ai/ha): 100
phytotoxicity rating IPOHE ([14]; 250 g ai/ha): 100
phytotoxicity rating SORHA ([15]; 63 g ai/ha): 50
phytotoxicity rating SORHA ([15]; 250 g ai/ha): 100
phytotoxicity rating CHEAL ([16]; 63 g ai/ha): 100
phytotoxicity rating CHEAL ([16]; 250 g ai/ha): 100
phytotoxicity rating DIGSA ([17]; 63 g ai/ha): 50
phytotoxicity rating DIGSA ([17]; 250 g ai/ha): 85
phytotoxicity rating AMARE ([18]; 63 g ai/ha, rating scale 0-100 (0 no damage, 100 complete death)): 100
phytotoxicity rating AMARE ([18]; 250 g ai/ha, rating scale 0-100): 100
phytotoxicity rating CASOB ([19]; 63 g ai/ha): 100
phytotoxicity rating CASOB ([19]; 250 g ai/ha): 100
phytotoxicity rating ABUTH ([20]; 63 g ai/ha): 100
phytotoxicity rating ABUTH ([20]; 250 g ai/ha): 100
phytotoxicity rating CORN (crop damage) ([21]; 63 g ai/ha): 90
phytotoxicity rating CORN (crop damage) ([21]; 250 g ai/ha): 99
phytotoxicity rating RICE (crop damage) ([22]; 63 g ai/ha): 80
phytotoxicity rating RICE (crop damage) ([22]; 250 g ai/ha): 85
